Measurements reported in publication PMC12827894, “Structure-guided design of picomolar-level macrocyclic TRPC5 channel inhibitors with antidepressant activity” (Acta Pharmaceutica Sinica. B, 2025).
Read-outs that look alike come from different tables or passages of the source.

How the values were obtained:
[1] = target: hERG (Homo sapiens, UniProt Q12809); settings: 10 μmol/L, patch-clamp
[2] = in vivo; settings: male, C57BL/6, mouse, B/P
[3] = target: T1, Cav1.2 (Homo sapiens, UniProt Q13936); format: cell-based; settings: Cav1.2, 5 μmol/L
T1 construct: ICE Bioscience ICESTP SafetyOne44 Panel

[4] = target: T2, TRPC5 F576A (Homo sapiens, UniProt Q9UL62, F576A); assay: Inhibition of TRPC5 mutant F576A; format: cell-based; settings: TRPC5 F576A vs wild type
T2 construct: full-length wild-type or mutant TRPC5 was cloned into a pcDNA3.1 vector; expressed in transfected cells; host or cells: HEK293T

[5] = target: T3, M2 (Homo sapiens, UniProt P08172); assay: cell-based; format: cell-based
T3 construct: purchased ICE Bioscience ICESTP SafetyOne44 Panel

[6] = target: T4, β2 (Homo sapiens, UniProt P07550); assay: SafetyOne44 panel: β2; format: cell-based
T4 construct: purchased ICE Bioscience ICESTP™ SafetyOne44 Panel

[7] = tested on: GABAA; format: cell-based
[8] = tested on: C57BL/6J mice; assay: CCK-4-induced anxiety model, elevated plus maze; format: in vivo; settings: CCK-4 model, 10 mg/kg p.o.
[9] = tested on: C57BL/6J mice; assay: m-CPP-induced anxiety model, elevated plus maze; format: in vivo; settings: 10 mg/kg p.o.
[10] = target: TRPM3 (Homo sapiens, UniProt Q9HCF6); assay: Patch-clamp selectivity, TRPM3; format: cell-based; settings: 10 μmol/L
[11] = target: T5, 5-HT2A (Homo sapiens, UniProt P28223); assay: cell-based; format: cell-based
T5 construct: purchased ICE Bioscience ICESTP SafetyOne44 Panel

[12] = in vitro; format: in vitro ADME; settings: not told
Excerpt: Table 1 Pharmacokinetic properties of JDIC-127. | column: ER; Papp (cm/s)

[13] = target: T6, 5-HTT (Homo sapiens, UniProt P31645); assay: SafetyOne44 panel: 5-HTT; format: cell-based; settings: 10 μmol/L, read-out: Antagonist JDIC-127 @10 μmol/L
T6 construct: purchased ICE Bioscience ICESTP™ SafetyOne44 Panel

[14] = tested on: C57BL/6 mice; assay: Forced swim test (FST); format: in vivo; settings: 0.3 or 3 mg/kg p.o., 14 days
[15] = tested on: 44 clinically safety-related targets
[16] = target: T7, AR (Homo sapiens, UniProt P10275); assay: cell-based; format: cell-based
T7 construct: purchased ICE Bioscience ICESTP™ SafetyOne44 Panel

[17] = target: T8, MAO A (Homo sapiens, UniProt P21397); assay: SafetyOne44 panel: MAO A; format: biochemical; settings: 10 μmol/L, read-out: Antagonist JDIC-127 @10 μmol/L
T8 construct: purchased ICE Bioscience ICESTP™ SafetyOne44 Panel

[18] = target: T9, IKs (Homo sapiens, UniProt P51787); assay: SafetyOne44 panel ion channels: IKs; format: cell-based; settings: 5 μmol/L
T9 construct: ICE Bioscience ICESTP SafetyOne44 Panel

[19] = target: V1a (Homo sapiens, UniProt P37288); assay: cell-based; settings: read-out: Antagonist JDIC-127 @10 μmol/L
[20] = tested on: C57BL/6J mice; assay: m-CPP-induced anxiety model, marble burying test; format: in vivo; settings: p.o.
[21] = in vivo; settings: male, C57BL/6, mouse; for Vd: C57BL/6, 2 mpk
[22] = target: T10, α2A (Homo sapiens, UniProt P08913); assay: cell-based; format: cell-based
T10 construct: purchased ICE Bioscience ICESTP SafetyOne44 Panel

[23] = target: COX2 (Homo sapiens, UniProt P35354); assay: biochemical; settings: read-out: Antagonist JDIC-127 @10 μmol/L
[24] = antagonist mode, 10 μmol/L, read-out: Antagonist JDIC-127 @10 μmol/L

T3 sequence (P08172 whole entry): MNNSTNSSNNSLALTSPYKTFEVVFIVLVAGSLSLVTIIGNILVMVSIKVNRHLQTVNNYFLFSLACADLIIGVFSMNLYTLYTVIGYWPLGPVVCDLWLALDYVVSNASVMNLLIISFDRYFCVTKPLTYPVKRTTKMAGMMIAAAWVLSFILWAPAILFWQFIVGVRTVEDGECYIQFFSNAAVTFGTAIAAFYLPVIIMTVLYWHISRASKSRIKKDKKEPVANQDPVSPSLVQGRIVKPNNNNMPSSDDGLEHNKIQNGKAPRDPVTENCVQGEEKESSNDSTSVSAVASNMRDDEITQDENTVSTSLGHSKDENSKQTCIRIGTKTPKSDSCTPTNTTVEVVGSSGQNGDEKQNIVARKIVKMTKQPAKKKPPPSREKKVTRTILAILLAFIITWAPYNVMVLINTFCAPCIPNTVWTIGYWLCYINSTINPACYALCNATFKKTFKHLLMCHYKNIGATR
T10 sequence (P08913 whole entry): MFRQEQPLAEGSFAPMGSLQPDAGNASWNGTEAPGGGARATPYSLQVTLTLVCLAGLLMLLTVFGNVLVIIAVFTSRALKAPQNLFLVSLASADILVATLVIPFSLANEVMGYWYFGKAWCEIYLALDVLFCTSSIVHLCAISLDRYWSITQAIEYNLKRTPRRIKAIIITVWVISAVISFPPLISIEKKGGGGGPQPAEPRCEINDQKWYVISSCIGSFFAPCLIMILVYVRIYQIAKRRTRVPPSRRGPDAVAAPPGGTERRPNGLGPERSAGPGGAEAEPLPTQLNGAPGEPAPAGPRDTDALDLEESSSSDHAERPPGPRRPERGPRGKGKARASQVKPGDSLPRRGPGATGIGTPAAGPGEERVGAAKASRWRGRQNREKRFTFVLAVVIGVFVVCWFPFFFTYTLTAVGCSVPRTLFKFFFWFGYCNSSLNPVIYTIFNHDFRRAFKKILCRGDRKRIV
T7 sequence (P10275 whole entry): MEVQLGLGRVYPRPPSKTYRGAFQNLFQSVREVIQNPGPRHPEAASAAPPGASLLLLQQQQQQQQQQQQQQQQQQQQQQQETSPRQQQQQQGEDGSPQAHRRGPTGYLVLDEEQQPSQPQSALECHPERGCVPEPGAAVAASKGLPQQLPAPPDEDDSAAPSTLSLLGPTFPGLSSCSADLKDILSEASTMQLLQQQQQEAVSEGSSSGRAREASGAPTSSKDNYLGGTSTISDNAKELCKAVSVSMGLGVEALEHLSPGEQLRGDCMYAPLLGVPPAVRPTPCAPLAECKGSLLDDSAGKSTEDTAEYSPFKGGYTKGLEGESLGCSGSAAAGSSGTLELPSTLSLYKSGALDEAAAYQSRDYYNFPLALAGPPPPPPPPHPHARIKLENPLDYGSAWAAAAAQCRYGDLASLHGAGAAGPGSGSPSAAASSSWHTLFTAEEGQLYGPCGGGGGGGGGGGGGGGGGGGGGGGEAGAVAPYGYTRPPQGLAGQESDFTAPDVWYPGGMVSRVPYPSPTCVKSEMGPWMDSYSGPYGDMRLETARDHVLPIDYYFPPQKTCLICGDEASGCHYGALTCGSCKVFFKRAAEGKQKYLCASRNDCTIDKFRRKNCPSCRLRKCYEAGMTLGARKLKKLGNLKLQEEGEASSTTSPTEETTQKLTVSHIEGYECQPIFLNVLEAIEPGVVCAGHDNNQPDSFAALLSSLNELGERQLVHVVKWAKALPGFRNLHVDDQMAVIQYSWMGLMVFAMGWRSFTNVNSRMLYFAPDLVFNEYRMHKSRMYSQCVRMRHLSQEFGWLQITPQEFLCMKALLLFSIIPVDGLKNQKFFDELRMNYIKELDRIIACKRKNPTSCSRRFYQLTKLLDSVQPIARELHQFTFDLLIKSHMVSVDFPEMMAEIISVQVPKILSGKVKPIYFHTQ
T4 sequence (P07550 whole entry): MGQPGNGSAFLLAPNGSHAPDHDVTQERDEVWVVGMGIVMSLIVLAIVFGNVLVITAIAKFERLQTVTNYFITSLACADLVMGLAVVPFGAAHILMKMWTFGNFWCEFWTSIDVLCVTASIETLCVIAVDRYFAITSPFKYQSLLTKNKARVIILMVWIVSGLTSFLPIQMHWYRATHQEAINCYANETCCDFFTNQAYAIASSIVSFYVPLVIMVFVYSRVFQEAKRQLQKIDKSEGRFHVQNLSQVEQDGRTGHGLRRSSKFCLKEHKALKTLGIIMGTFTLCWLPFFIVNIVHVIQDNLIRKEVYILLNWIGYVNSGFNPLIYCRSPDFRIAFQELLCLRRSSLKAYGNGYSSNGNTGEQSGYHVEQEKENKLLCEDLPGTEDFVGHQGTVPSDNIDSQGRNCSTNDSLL
T5 sequence (P28223 whole entry): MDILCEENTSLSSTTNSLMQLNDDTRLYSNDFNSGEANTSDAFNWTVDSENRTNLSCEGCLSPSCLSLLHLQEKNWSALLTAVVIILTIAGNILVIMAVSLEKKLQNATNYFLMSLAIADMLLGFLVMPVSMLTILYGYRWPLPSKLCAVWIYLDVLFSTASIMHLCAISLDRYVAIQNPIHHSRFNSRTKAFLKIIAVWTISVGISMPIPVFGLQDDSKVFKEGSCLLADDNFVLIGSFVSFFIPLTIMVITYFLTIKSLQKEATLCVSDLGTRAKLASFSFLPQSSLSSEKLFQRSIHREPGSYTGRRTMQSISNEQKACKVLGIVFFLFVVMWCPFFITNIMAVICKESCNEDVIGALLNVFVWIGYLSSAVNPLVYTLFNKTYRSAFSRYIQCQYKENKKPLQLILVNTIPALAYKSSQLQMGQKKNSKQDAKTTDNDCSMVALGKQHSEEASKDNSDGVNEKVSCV
T8 sequence (P21397 whole entry): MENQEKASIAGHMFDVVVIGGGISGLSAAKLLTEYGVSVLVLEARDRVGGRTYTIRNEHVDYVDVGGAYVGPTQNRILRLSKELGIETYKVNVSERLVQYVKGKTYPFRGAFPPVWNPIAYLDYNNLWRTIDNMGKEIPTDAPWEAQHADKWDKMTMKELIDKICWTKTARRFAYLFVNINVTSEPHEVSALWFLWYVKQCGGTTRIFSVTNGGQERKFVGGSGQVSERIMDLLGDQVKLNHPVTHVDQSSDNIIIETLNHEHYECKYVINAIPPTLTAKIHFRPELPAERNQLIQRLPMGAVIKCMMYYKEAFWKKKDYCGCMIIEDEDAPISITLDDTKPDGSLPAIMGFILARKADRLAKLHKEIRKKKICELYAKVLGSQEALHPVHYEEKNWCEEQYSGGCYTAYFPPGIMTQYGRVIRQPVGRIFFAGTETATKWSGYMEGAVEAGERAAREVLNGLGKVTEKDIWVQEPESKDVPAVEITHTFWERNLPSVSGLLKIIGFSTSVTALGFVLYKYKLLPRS
T9 sequence (P51787 whole entry): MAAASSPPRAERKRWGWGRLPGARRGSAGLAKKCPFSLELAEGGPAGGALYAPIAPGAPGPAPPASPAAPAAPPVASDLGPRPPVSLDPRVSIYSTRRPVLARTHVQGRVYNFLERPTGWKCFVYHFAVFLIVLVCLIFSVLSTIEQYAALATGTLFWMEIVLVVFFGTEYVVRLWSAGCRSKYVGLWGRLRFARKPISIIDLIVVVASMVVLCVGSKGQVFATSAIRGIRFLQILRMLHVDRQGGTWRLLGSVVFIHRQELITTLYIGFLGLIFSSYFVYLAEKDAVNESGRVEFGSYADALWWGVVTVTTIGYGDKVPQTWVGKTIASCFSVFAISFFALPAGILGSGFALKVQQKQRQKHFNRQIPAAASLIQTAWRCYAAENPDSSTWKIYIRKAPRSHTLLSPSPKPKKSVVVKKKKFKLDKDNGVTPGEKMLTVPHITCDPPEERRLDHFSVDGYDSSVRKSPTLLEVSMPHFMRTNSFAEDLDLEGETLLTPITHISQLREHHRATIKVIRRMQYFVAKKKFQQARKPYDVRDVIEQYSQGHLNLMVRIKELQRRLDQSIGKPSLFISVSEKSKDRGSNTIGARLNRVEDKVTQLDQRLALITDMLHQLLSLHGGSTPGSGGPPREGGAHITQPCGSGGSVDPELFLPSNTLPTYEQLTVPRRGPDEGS
T6 sequence (P31645 whole entry): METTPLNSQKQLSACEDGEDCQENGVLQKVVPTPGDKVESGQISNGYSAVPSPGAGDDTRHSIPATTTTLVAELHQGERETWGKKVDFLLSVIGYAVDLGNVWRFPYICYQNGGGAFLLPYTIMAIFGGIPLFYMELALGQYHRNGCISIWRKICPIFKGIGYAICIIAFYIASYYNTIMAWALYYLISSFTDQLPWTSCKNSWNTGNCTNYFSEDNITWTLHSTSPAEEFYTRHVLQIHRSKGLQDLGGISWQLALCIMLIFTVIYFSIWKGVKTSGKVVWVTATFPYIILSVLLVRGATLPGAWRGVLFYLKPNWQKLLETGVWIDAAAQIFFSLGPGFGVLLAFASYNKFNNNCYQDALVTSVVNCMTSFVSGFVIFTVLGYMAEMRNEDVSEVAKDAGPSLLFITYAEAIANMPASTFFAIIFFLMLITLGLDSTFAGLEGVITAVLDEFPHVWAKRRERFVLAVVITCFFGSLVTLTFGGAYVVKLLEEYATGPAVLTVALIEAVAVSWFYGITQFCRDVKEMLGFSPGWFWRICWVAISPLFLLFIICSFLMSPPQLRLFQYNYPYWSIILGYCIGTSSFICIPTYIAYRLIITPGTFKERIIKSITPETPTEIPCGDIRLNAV

O=c1c2c3nc(n2Cc2ccc(Cl)cc2)Oc2ccc(F)c(c2)OCCCCCCn3c(=O)n1CCCO [JDIC-127]
inhibition of hERG activity [1]: less than 33%
Kp ([2]; iv, 2 mg/kg, 2 min): 1.1
Kp ([2]; iv, 2 mg/kg, 45 min): 3.85
Kp ([2]; iv, 2 mg/kg, 180 min): 7.4
Kp ([2]; po, 10 mg/kg, 2 min): 3.48
Kp ([2]; po, 10 mg/kg, 45 min): 2.51
Kp ([2]; po, 10 mg/kg, 180 min): 0.32
Antagonist JDIC-127 @5 μmol/L [3]: 20.23%
effect of mutation on inhibitory potency of JDIC-127 [4]: significantly diminished
Agonist JDIC-127 @10 μmol/L ([5]; M2, agonist mode): 2.82%
inhibition at 10 µM ([5]; M2, antagonist mode, 10 μmol/L, read-out: Antagonist JDIC-127 @10 μmol/L): -0.26%
Agonist JDIC-127 @10 μmol/L ([6]; β2, agonist mode): –1.53%
inhibition at 10 µM ([6]; β2, antagonist mode, 10 μmol/L, read-out: Antagonist JDIC-127 @10 μmol/L): 19.6%
Agonist JDIC-127 @ 5 μmol/L ([7]; agonist mode): 0.74%
Antagonist JDIC-127 @5 μmol/L ([7]; antagonist mode): 26.35%
percentage of entries in the open arms, EPM [8]: significantly increased
percentage of entries into the open arms, EPM [9]: significantly increased
inhibition at 10 µM [10]: < 33%
Agonist JDIC-127 @10 μmol/L ([11]; agonist mode): 3.92%
inhibition at 10 µM [11, 24]: 5.24%
ER [12]: 1.45
Papp [12]: 1.51 ×10⁻⁶ cm/s
inhibition at 10 µM [13]: -31.8%
immobility time in FST [14]: significantly reduced
effect on the 44 safety targets [15]: no significant inhibitory or stimulatory effects
Agonist JDIC-127 @10 μmol/L ([16]; agonist mode): 0.06%
inhibition at 10 µM [16, 24]: -7.02%
inhibition at 10 µM [17]: 15.5%
Antagonist JDIC-127 @5 μmol/L [18]: 22.77%
AUC0–t (C57BL/6, 2 mpk, i.v.): 496 h∗ng/mL
AUC0–∞ (C57BL/6, 2 mpk, i.v.): 499 h∗ng/mL
AUC0–t (C57BL/6, 10 mpk, p.o.): 187 h∗ng/mL
AUC0–∞ (C57BL/6, 10 mpk, p.o.): 193 h∗ng/mL
CL (C57BL/6, 10 mpk, p.o.): 865 mL/min/kg
Vd (C57BL/6, 10 mpk, p.o.): 107000 mL/kg
inhibition at 10 µM [19]: -0.83%
number of buried marbles, MBT [20]: reduced
bioavailability [21]: 7.5%
C0 ([21]; iv, 2 mg/kg): 1450 ng/mL
MRT ([21]; iv, 2 mg/kg): 0.88 h
clearance ([21]; iv, 2 mg/kg): 66.8 mL/min/kg
half-life ([21]; iv, 2 mg/kg): 59.4 min
Vd ([21]; iv, 2 mg/kg, VSS, i.v.): 3.51 L/kg
Vd ([21]; iv, 2 mg/kg, Vd): 5.71 L/kg
Cmax ([21]; po, 10 mg/kg): 177 ng/mL
MRT ([21]; po, 10 mg/kg): 1.9 h
Tmax ([21]; po, 10 mg/kg): 15 min
half-life ([21]; po, 10 mg/kg): 84 min
Agonist JDIC-127 @10 μmol/L ([22]; agonist mode): –1.14%
inhibition at 10 µM [22, 24]: -8.62%
inhibition at 10 µM [23]: 1.38%
